ChEMBL document CHEMBL3739257, “Aryl amide small-molecule inhibitors of microRNA miR-21 function” (Bioorg Med Chem Lett, 2015)
Active and inactive are the calls of the source. The calls are words filed in the database; no cut-off is given here.

Legend:
HeLa [1] = experiment: Inhibition of microRNA miR-21 expression in human HeLa cells assessed as reduction of intracellular miR-21 level by measuring luciferase signal relative to control; assay type: cell-based
HeLa [2] = experiment: Inhibition of miR-125b expression in human HeLa cells at 10 uM after 48 hrs by qRT-PCR analysis; assay type: functional, cell-based
HeLa [3] = experiment: Inhibition of miR-21 expression in human HeLa cells at 10 uM after 48 hrs by qRT-PCR analysis; assay type: functional
[4] = Inhibition of microRNA miR-21 expression in human HeLa cells assessed as luciferase signal at 10 uM after 48 hrs by microplate reader analysis; assay type: cell-based
HeLa [5] = experiment: Inhibition of primary microRNA miR-21 expression in human HeLa cells assessed as luciferase signal at 10 uM by qRT-PCR analysis relative to control; assay type: cell-based
HeLa [6] = experiment: Inhibition of microRNA miR-21P transfected in human HeLa cells assessed as luciferase signal at 10 uM; assay type: cell-based
Lampyridae = experiment: Inhibition of firefly luciferase at 10 uM preincubated for 1 hr followed by ATP addition measured after 3 mins by CellTiter-Glo assay
HeLa [7] = experiment: Inhibition of miR-17-5p expression in human HeLa cells at 10 uM after 48 hrs by qRT-PCR analysis; assay type: functional, cell-based
HeLa [8] = experiment: Inhibition of miR-222 expression in human HeLa cells at 10 uM after 48 hrs by qRT-PCR analysis; assay type: functional, cell-based
HeLa [9] = experiment: Inhibition of microRNA miR-21 expression in human HeLa cells assessed as luciferase signal at 10 uM after 48 hrs by microplate reader analysis relative to control; assay type: cell-based
Huh-7 = experiment: Inhibition of microRNA miR-122 expression in human Huh7-psiCHECK cells assessed as luciferase expression at 10 uM after 48 hrs by microplate reader analysis; assay type: cell-based

With `COc1ccc(C(=O)NCCc2ccccc2)cc1` as the molecule, how does the fold change (FC) (HeLa [1]) read?
The fold change (FC) was 0.5.

Which fold change (FC) (HeLa [1]) does the source give for `CCCNC(=O)c1ccc(OC)c(O)c1` here?
Its fold change (FC) is 1.11.

Which fold change (FC) (HeLa [1]) does the source give for `CCOc1ccc(C(=O)NCCc2ccccc2)cc1` here?
Its fold change (FC) is 1.56.

With `COc1ccc(C(=O)NCCc2ccccc2)cc1O` as the molecule, how does the fold change (FC) (HeLa [1]) read?
The fold change (FC) was 0.95.

Which fold change (FC) (HeLa [1]) does the source give for `O=C(NCCC1=CCCCC1)c1cccc(O)c1` here?
The fold change (FC) was 1.61.

For `COc1ccc(C(N)=O)cc1`, which fold change (FC) (HeLa [1]) is on record?
The fold change (FC) was 1.11.

Which fold change (FC) (HeLa [1]) does the source give for `COc1ccc(C(=O)NCCC2=CCCCC2)cc1` here?
Its fold change (FC) is 1.05.

For `CCCOc1ccc(C(=O)NCCc2ccccc2)cc1`, which fold change (FC) (HeLa [1]) is on record?
Its fold change (FC) is 1.36.

With `COc1ccc(C(=O)NCCC2=CCCCC2)cc1O` as the molecule, how does the fold change (FC) (HeLa [1]) read?
Its fold change (FC) is 1.63.

For `C=CCNC(=O)c1ccc(OC)cc1`, which fold change (FC) (HeLa [1]) is on record?
Its fold change (FC) is 1.28.

Which inhibition (HeLa [2]) does the source give for `COc1ccc(C(=O)Nc2ccccc2)cc1` here?
Its inhibition is “inactive”.

What about the inhibition at 10 µM (HeLa [3]) of the same molecule?
Its inhibition at 10 µM is 43%.

And the EC50 [4]?
The EC50 was 2.3 µM.

What about the inhibition (HeLa [5]) of the same molecule?
The inhibition was “inactive”.

What about the inhibition (HeLa [6]) of the same molecule?
The inhibition was “inactive”.

And the inhibition (Lampyridae)?
Its inhibition is “inactive”.

What about the inhibition (HeLa [7]) of the same molecule?
Its inhibition is “inactive”.

And the fold change (FC) (HeLa [1])?
Its fold change (FC) is 2.39.

What about the inhibition (HeLa [8]) of the same molecule?
Its inhibition is “inactive”.

For `O=C(Nc1ccccc1)c1ccccc1`, which fold change (FC) (HeLa [1]) is on record?
Its fold change (FC) is 1.49.

Which inhibition (HeLa [2]) does the source give for `O=C(NCCC1=CCCCC1)c1ccc(O)c(O)c1` here?
Its inhibition is “inactive”.

What about the inhibition (HeLa [9]) of the same molecule?
Its inhibition is over 100%.

And the inhibition at 10 µM (HeLa [3])?
The inhibition at 10 µM was 42%.

And the EC50 [4]?
The EC50 was 6.1 µM.

And the inhibition (HeLa [5])?
Its inhibition is “inactive”.

What about the inhibition (Huh-7) of the same molecule?
The inhibition was “inactive”.

And the inhibition (HeLa [6])?
Its inhibition is “inactive”.

And the inhibition (Lampyridae)?
Its inhibition is “inactive”.

And the inhibition (HeLa [7])?
Its inhibition is “inactive”.

And the fold change (FC) (HeLa [1])?
Its fold change (FC) is 2.22.

What about the inhibition (HeLa [8]) of the same molecule?
The inhibition was “inactive”.

Which fold change (FC) (HeLa [1]) does the source give for `COc1ccc(C(=O)NCCCc2ccccc2)cc1` here?
The fold change (FC) was 1.94.

With `O=C(NCCC1=CCCCC1)c1ccc(O)cc1` as the molecule, how does the fold change (FC) (HeLa [1]) read?
The fold change (FC) was 1.66.

For `COc1ccc(C(=O)NCCc2ccccn2)cc1`, which fold change (FC) (HeLa [1]) is on record?
The fold change (FC) was 1.

Which fold change (FC) (HeLa [1]) does the source give for `COc1ccc(C(=O)NCCC2CCCCC2)cc1O` here?
Its fold change (FC) is 1.93.

For `COc1ccc(C(=O)NCCc2ccc3ccccc3c2)cc1`, which fold change (FC) (HeLa [1]) is on record?
The fold change (FC) was 1.41.

Which inhibition (HeLa [2]) does the source give for `COc1ccc(NC(=O)c2ccc(OC)cc2)cc1` here?
The inhibition was “inactive”.

What about the inhibition (HeLa [9]) of the same molecule?
Its inhibition is over 100%.

What about the inhibition at 10 µM (HeLa [3]) of the same molecule?
Its inhibition at 10 µM is 61%.

And the EC50 [4]?
The EC50 was 0.86 µM.

And the inhibition (HeLa [5])?
The inhibition was “inactive”.

And the inhibition (Huh-7)?
The inhibition was “inactive”.

What about the inhibition (HeLa [6]) of the same molecule?
The inhibition was “inactive”.

What about the inhibition (Lampyridae) of the same molecule?
Its inhibition is “inactive”.

What about the inhibition (HeLa [7]) of the same molecule?
The inhibition was “inactive”.

And the fold change (FC) (HeLa [1])?
The fold change (FC) was 2.88.

And the inhibition (HeLa [8])?
The inhibition was “inactive”.

Which results are given for `COc1ccc(C(=O)NCCC2=CCCCC2)cc1OC`?
inhibition (HeLa [2]): inactive; inhibition (HeLa [9]): > 100%; inhibition at 10 µM (HeLa [3]): 17%; EC50 [4]: 10.8 µM; inhibition (HeLa [5]): inactive; inhibition (Huh-7): inactive; inhibition (HeLa [6]): inactive; inhibition (Lampyridae): inactive; inhibition (HeLa [7]): inactive; fold change (FC) (HeLa [1]): 2.01; inhibition (HeLa [8]): inactive

Which fold change (FC) (HeLa [1]) does the source give for `COc1ccc(C(=O)NCCC2=CCCCC2)cc1OC(C)=O` here?
The fold change (FC) was 1.83.

With `COc1ccc(C(=O)NCc2ccccc2)cc1` as the molecule, how does the fold change (FC) (HeLa [1]) read?
The fold change (FC) was 1.43.

With `COc1ccc(C(=O)Nc2ccc3ccccc3c2)cc1` as the molecule, how does the inhibition (HeLa [9]) read?
The inhibition was over 100%.

What about the inhibition (Huh-7) of the same molecule?
The inhibition was “inactive”.

What about the fold change (FC) (HeLa [1]) of the same molecule?
The fold change (FC) was 1.21.

With `O=C(NCCc1ccccc1)c1ccc(Oc2ccccc2)cc1` as the molecule, how does the fold change (FC) (HeLa [1]) read?
Its fold change (FC) is 1.4.

Which fold change (FC) (HeLa [1]) does the source give for `O=C(NCCC1=CCCCC1)c1ccccc1` here?
The fold change (FC) was 1.58.

Which fold change (FC) (HeLa [1]) does the source give for `COc1ccc(C(=O)NCCC2=CCCCC2)cc1OC1CCN(C(C)C)CC1` here?
Its fold change (FC) is 1.36.

Which fold change (FC) (HeLa [1]) does the source give for `Nc1ccc(C(=O)NCCc2ccccc2)cc1` here?
The fold change (FC) was 1.46.

For `COc1ccc(C(=O)NCCCCc2ccccc2)cc1`, which fold change (FC) (HeLa [1]) is on record?
Its fold change (FC) is 1.03.
